Measurements as given in US4129648A, “Method for reducing endogenous prostaglandin synthesis” (priority 1977, dated 1978).
Structures can show the parent of a compound that is named as a salt.

What was measured:
[1] = tested on: bronchoconstriction induced by sodium arachidonate; experiment: Dynamic compliance and airway resistance in the anaesthetized guinea pig challenged with sodium arachidonate; format: in vivo
Protocol: (§1) The ability of Cohn subfraction IV4 and haptoglobin to reduce the transient hypertension caused by administration of sodium arachidonate in the guinea pig was also measured. These tests were carried out as follows.
(§2) Male albino guinea pigs weighing 400-600 g each (Dunkin Hartley strain) were anesthetized by administration of sodium pentobarbitone, 60 mg/kg intraperitoneally. The trachea was cannulated for artificial ventilation by a Starling pump (5-8 ml at 72 strokes per minute) via a Fleisch 0000 pneumatachograph. The difference in pressure across this device was measured with a Grass differential pressure transducer. […] Transpulmonary pressure (TPP) was measured with another differential pressure transducer via side arms to the thoracic cavity and the tracheal cannula. The signals for low and TPP were applied to the analogue computer so that there was approximately 180° phase difference. The computer derived the dynamic compliance and resistance from the in-going signals. Drugs were administered intravenously via the external jugular vein. A 1 mg/ml solution of sodium arachidonate was prepared as follows. […] These doses were given at 30 minute intervals to produce a large but submaximal bronchoconstriction. After 2 or 3 similar responses to the same dose of sodium arachidonate had been obtained, the test substance in saline (0.1 to 1 ml) was injected intravenously. At various times thereafter, a challenge was given.

[2] = tested on: transient hypertension induced by sodium arachidonate; experiment: Mean arterial blood pressure in the anaesthetized guinea pig challenged with sodium arachidonate; format: in vivo
Protocol: as §1, §2
The left carotid artery was cannulated for recording blood pressure with a Grass pressure transducer (Consolidated Dynamics 0.75 cm Hg type 4L221) linked to a Devices twin channel polygraph via a CD2D pre-amplifier. Electrocardiograms were recorded using a DC6 pre-amplifier linked to the Devices polygraph.

[3] = dose 25μ/kg intravenously, challenge 30 min after treatment
[4] = dose 25μ/kg intravenously, challenge 60 min after treatment
[5] = dose 25μ/kg intravenously, challenge 90 min after treatment
[6] = dose 25μ/kg intravenously, challenge 120 min after treatment
[7] = dose 25μ/kg intravenously, challenge 150 min after treatment
[8] = dose 50μ/kg intravenously, challenge 30 min after treatment
[9] = dose 50μ/kg intravenously, challenge 60 min after treatment
[10] = dose 50μ/kg intravenously, challenge 90 min after treatment
[11] = dose 50μ/kg intravenously, challenge 120 min after treatment
[12] = dose 50μ/kg intravenously, challenge 150 min after treatment
[13] = dose 50μ/kg intravenously, challenge 180 min after treatment
[14] = dose 50μ/kg intravenously, challenge 210 min after treatment
[15] = dose 50μ/kg intravenously, challenge 240 min after treatment
[16] = dose 5 mg/kg intravenously, challenge 45 sec after treatment
[17] = dose 20 mg/kg intravenously, challenge 45 sec after treatment
[18] = dose 50 mg/kg intravenously, challenge 45 sec after treatment
[19] = dose 100 mg/kg intravenously, challenge 45 sec after treatment
[20] = dose 0.03 mg/kg intravenously, challenge 45 sec after treatment
[21] = dose 0.10 mg/kg intravenously, challenge 45 sec after treatment
[22] = dose 2 mg/kg intravenously, challenge 45 sec after treatment
[23] = dose 2 mg/kg intravenously, challenge 30 min after treatment
[24] = dose 15 mg/kg intravenously, challenge 45 sec after treatment
[25] = dose 15 mg/kg intravenously, challenge 10 min after treatment
[26] = dose 15 mg/kg intravenously, challenge 30 min after treatment
[27] = dose 15 mg/kg intravenously, challenge 60 min after treatment
[28] = dose 15 mg/kg intravenously, challenge 90 min after treatment
[29] = dose 15 mg/kg intravenously, challenge 120 min after treatment
[30] = dose 0.04 mg/kg intravenously, challenge 30 min after treatment
[31] = dose 0.20 mg/kg intravenously, challenge 30 min after treatment
[32] = dose 0.50 mg/kg intravenously, challenge 30 min after treatment
[33] = dose 0.50 mg/kg intravenously, challenge 60 min after treatment

## ACTH: a drenocorticotrophin (ACTH), well known anti-inflammatory agent (SYSMEHFRWGKPVGKKRRPVKVYPNGAEDESAEAFPLEF; Corticotropin; UniProt P01189 138-176, looked up)
[1]; [3]
  Mean % Inhibition (± s.e.) of educed dynamic lung compliance: 16.5 ± 16.5%
  Mean % Inhibition (± s.e.) of increased airway resistance: 31.5 ± 24.5%
[1]; [4]
  Mean % Inhibition (± s.e.) of educed dynamic lung compliance: 35.5 ± 2.5%
  Mean % Inhibition (± s.e.) of increased airway resistance: 55.5 ± 3.5%
[1]; [5]
  Mean % Inhibition (± s.e.) of educed dynamic lung compliance: 62.5 ± 12.5%
  Mean % Inhibition (± s.e.) of increased airway resistance: 72.5 ± 12.5%
[1]; [6]
  Mean % Inhibition (± s.e.) of educed dynamic lung compliance: 53.0 ± 3.0%
  Mean % Inhibition (± s.e.) of increased airway resistance: 68.5 ± 16.5%
[1]; [7]
  Mean % Inhibition (± s.e.) of educed dynamic lung compliance: 63.0%
  Mean % Inhibition (± s.e.) of increased airway resistance: 85.0%
[1]; [8]
  Mean % Inhibition (± s.e.) of increased airway resistance: 52.0%
[1]; [9]
  Mean % Inhibition (± s.e.) of increased airway resistance: 73.0%
[1]; [10]
  Mean % Inhibition (± s.e.) of increased airway resistance: 73.0%
[1]; [11]
  Mean % Inhibition (± s.e.) of increased airway resistance: 91.0%
[1]; [12]
  Mean % Inhibition (± s.e.) of increased airway resistance: 68.0%
[1]; [13]
  Mean % Inhibition (± s.e.) of increased airway resistance: 59.0%
[1]; [14]
  Mean % Inhibition (± s.e.) of increased airway resistance: 66.0%
[1]; [15]
  Mean % Inhibition (± s.e.) of increased airway resistance: 67.0%
[1]; intravenously, challenge 30 min after treatment
  Mean % Inhibition (± s.e.) of educed dynamic lung compliance: 67.0%
[1]; intravenously, challenge 60 min after treatment
  Mean % Inhibition (± s.e.) of educed dynamic lung compliance: 50.0%
[1]; intravenously, challenge 90 min after treatment
  Mean % Inhibition (± s.e.) of educed dynamic lung compliance: 67.0%
[1]; intravenously, challenge 120 min after treatment
  Mean % Inhibition (± s.e.) of educed dynamic lung compliance: 75.0%
[1]; intravenously, challenge 150 min after treatment
  Mean % Inhibition (± s.e.) of educed dynamic lung compliance: 58.0%
[1]; intravenously, challenge 180 min after treatment
  Mean % Inhibition (± s.e.) of educed dynamic lung compliance: 75.0%
[1]; intravenously, challenge 210 min after treatment
  Mean % Inhibition (± s.e.) of educed dynamic lung compliance: 75.0%
[1]; intravenously, challenge 240 min after treatment
  Mean % Inhibition (± s.e.) of educed dynamic lung compliance: 75.0%
[2]; [3]
  Mean % Inhibition (± s.e.) of hypertension: 24.0 ± 10.0%
[2]; [4]
  Mean % Inhibition (± s.e.) of hypertension: 28.5 ± 14.5%
[2]; [5]
  Mean % Inhibition (± s.e.) of hypertension: 49.0 ± 15.0%
[2]; [6]
  Mean % Inhibition (± s.e.) of hypertension: 53.5 ± 3.5%
[2]; [7]
  Mean % Inhibition (± s.e.) of hypertension: 17.0%
[2]; [8]
  Mean % Inhibition (± s.e.) of hypertension: 83.0%
[2]; [9]
  Mean % Inhibition (± s.e.) of hypertension: 67.0%
[2]; [10]
  Mean % Inhibition (± s.e.) of hypertension: 100.0%
[2]; [11]
  Mean % Inhibition (± s.e.) of hypertension: 67.0%
[2]; [12]
  Mean % Inhibition (± s.e.) of hypertension: 100.0%
[2]; [13]
  Mean % Inhibition (± s.e.) of hypertension: 83.0%
[2]; [14]
  Mean % Inhibition (± s.e.) of hypertension: 100.0%
[2]; [15]
  Mean % Inhibition (± s.e.) of hypertension: 100.0%

## Haptoglobin: obtained from human plasma Cohn subfraction IV4 by ammonium sulphate purification and DEAE cellulose chromatography
[1]; [16]
  Mean % Inhibition (± s.e.) of educed dynamic lung compliance: 27.4 ± 5.3%
  Mean % Inhibition (± s.e.) of increased airway resistance: 31.8 ± 4.7%
[1]; [17]
  Mean % Inhibition (± s.e.) of educed dynamic lung compliance: 34.3 ± 7.4%
  Mean % Inhibition (± s.e.) of increased airway resistance: 44.3 ± 6.7%
[1]; [18]
  Mean % Inhibition (± s.e.) of educed dynamic lung compliance: 49.0 ± 3.2%
  Mean % Inhibition (± s.e.) of increased airway resistance: 67.7 ± 0.3%
[1]; [19]
  Mean % Inhibition (± s.e.) of educed dynamic lung compliance: 64.0 ± 0%
  Mean % Inhibition (± s.e.) of increased airway resistance: 67.0 ± 8.0%
[2]; [16]
  Mean % Inhibition (± s.e.) of hypertension: 34.5 ± 13.9%
[2]; [17]
  Mean % Inhibition (± s.e.) of hypertension: 83.5 ± 16.5%
[2]; [18]
  Mean % Inhibition (± s.e.) of hypertension: 90.0 ± 10.0%
[2]; [19]
  Mean % Inhibition (± s.e.) of hypertension: 73.0%

## COc1ccc2c(c1)c(CC(=O)O)c(C)n2C(=O)c1ccc(Cl)cc1 [Indomethacin, indomethacin sodium salt]
[1]; [20]
  Mean % Inhibition (± s.e.) of educed dynamic lung compliance: 58.7 ± 15.7%
  Mean % Inhibition (± s.e.) of increased airway resistance: 47.0 ± 15.8%
[1]; [21]
  Mean % Inhibition (± s.e.) of educed dynamic lung compliance: 85.5 ± 14.5%
  Mean % Inhibition (± s.e.) of increased airway resistance: 90.5 ± 9.5%
[2]; [20]
  Mean % Inhibition (± s.e.) of hypertension: 65.0 ± 2.1%

## CC(=O)Oc1ccccc1C(=O)O [Aspirin, aspirin calcium salt]
[1]; [22]
  Mean % Inhibition (± s.e.) of educed dynamic lung compliance: 71.5 ± 6.5%
  Mean % Inhibition (± s.e.) of increased airway resistance: 85.5 ± 3.5%
[1]; [23]
  Mean % Inhibition (± s.e.) of educed dynamic lung compliance: 81.5 ± 7.5%
  Mean % Inhibition (± s.e.) of increased airway resistance: 91.0 ± 9.0%

## C[C@]12CCC(=O)C=C1CC[C@@H]1[C@@H]2[C@@H](O)C[C@@]2(C)[C@H]1CC[C@]2(O)C(=O)COC(=O)CCC(=O)O [Hydrocortisone, hydrocortisone sodium succinate]
[1]; [24]
  Mean % Inhibition (± s.e.) of educed dynamic lung compliance: 15.0 ± 7.5%
  Mean % Inhibition (± s.e.) of increased airway resistance: 24.0 ± 1.5%
[1]; [25]
  Mean % Inhibition (± s.e.) of educed dynamic lung compliance: 21.3 ± 4.2%
  Mean % Inhibition (± s.e.) of increased airway resistance: 24.3 ± 6.8%
[1]; [26]
  Mean % Inhibition (± s.e.) of educed dynamic lung compliance: 49.0 ± 9.7%
  Mean % Inhibition (± s.e.) of increased airway resistance: 46.2 ± 5.7%
[1]; [27]
  Mean % Inhibition (± s.e.) of educed dynamic lung compliance: 44.0 ± 6.0%
  Mean % Inhibition (± s.e.) of increased airway resistance: 61.0 ± 3.0%
[1]; [28]
  Mean % Inhibition (± s.e.) of educed dynamic lung compliance: 25.0%
  Mean % Inhibition (± s.e.) of increased airway resistance: 54.0%
[1]; [29]
  Mean % Inhibition (± s.e.) of educed dynamic lung compliance: 12.0%
  Mean % Inhibition (± s.e.) of increased airway resistance: 17.0%
[2]; [24]
  Mean % Inhibition (± s.e.) of hypertension: 35.0 ± 2.0%
[2]; [25]
  Mean % Inhibition (± s.e.) of hypertension: 48.0 ± 18.0%
[2]; [26]
  Mean % Inhibition (± s.e.) of hypertension: 25.0 ± 25.0%
[2]; [27]
  Mean % Inhibition (± s.e.) of hypertension: 25.0%

## Haptoglobin heated to 60° C 15 min: haptoglobin from Cohn subfraction IV4 by ammonium sulphate purification, partially heat-inactivated
[1]; [16]
  Mean % Inhibition (± s.e.) of educed dynamic lung compliance: 6.3 ± 6.3%
  Mean % Inhibition (± s.e.) of increased airway resistance: 10.3 ± 5.2%
[2]; [16]
  Mean % Inhibition (± s.e.) of hypertension: 7.0 ± 7.0%

## C[C@]12CCC(=O)C=C1CC[C@@H]1[C@@H]2[C@@H](O)C[C@]2(C=O)[C@@H](C(=O)CO)CC[C@@H]12 [Aldosterone, aldosterone]
[1]; [30]
  Mean % Inhibition (± s.e.) of educed dynamic lung compliance: 0%
  Mean % Inhibition (± s.e.) of increased airway resistance: 9.0%
[1]; [31]
  Mean % Inhibition (± s.e.) of educed dynamic lung compliance: 1.0%
  Mean % Inhibition (± s.e.) of increased airway resistance: 14.0%
[1]; [32]
  Mean % Inhibition (± s.e.) of educed dynamic lung compliance: 10.5 ± 6.5%
  Mean % Inhibition (± s.e.) of increased airway resistance: 0%
[1]; [33]
  Mean % Inhibition (± s.e.) of educed dynamic lung compliance: 5.0 ± 5.0%
  Mean % Inhibition (± s.e.) of increased airway resistance: 6.5 ± 6.5%
